Here are results for 17 compounds from ChEMBL document CHEMBL1133915, “Design and synthesis of novel antibacterial agents with inhibitory activity against DNA polymerase III” (Bioorg Med Chem Lett, 2001).

In brackets after ≈: the same amount, converted by molar mass.

Test [1] has as its system Staphylococcus aureus. Briefly: In vitro percent inhibition against Pol III of Staphylococcus aureus at a concentration of 500 uM.
A short description of test [2]: Tested for in vitro antibacterial activity against DNA polymerase III of Staphylococcus aureus.
The next test concerns Bacillus subtilis. Briefly: Tested for in vitro anti bacterial activity against Bacillus subtilis ATCC- 6633. Type of test: functional.
Test [3] concerns Streptococcus pneumoniae. Briefly: Tested for in vitro anti bacterial activity against Streptococcus pneumoniae CL5350. In kind it is functional.
In test [4] the test system is Staphylococcus aureus. Briefly: Tested for in vitro anti bacterial activity against Staphylococcus aureus MB2985 […]. Type of test: functional.
Test [5] can be described thus: Tested for in vitro antibacterial activity against DNA polymerase III. More on the design: species or system Staphylococcus aureus.
Test [6] deals with Enterococcus faecium. Briefly: Tested for in vitro anti bacterial activity against Enterococcus faecium RLAI (ampicillin and imipenem resistant). In kind it is functional.
Test [7] relates to Enterococcus faecium. Briefly: Tested for in vitro anti bacterial activity against Enterococcus faecium RLAI (ampicillin and imipenem resistant), growth unaffected at highest level. In kind it is functional.
In test [8] the test system is Streptococcus pneumoniae. Briefly: Tested for in vitro anti bacterial activity against Streptococcus pneumoniae CL5350 and growth affected but tested at highest level of inhibition. Type of test: functional.

The term inhibition denotes the drop in the measured response relative to a control, in per cent. One may read the IC50 as the midpoint of a concentration-inhibition curve. A low value points to greater potency in that assay. As a reminder, the MIC is the smallest concentration in the dilution series that meets the test's criterion for growth inhibition. Low values mean greater potency, high ones weaker potency.

`CCc1cc(Nc2cc(Oc3ccc(Br)cc3)nc(N)n2)ccc1C` showed an inhibition in the test with Staphylococcus aureus [1] of 97%. The compound also had an IC50 in test [2] of 10 µM.

Turning to `CCc1cc(Nc2cc(Cl)nc(N)n2)ccc1C`, the MIC was 3 µg/mL (≈ 11.4 µM) against Bacillus subtilis, 26 µg/mL (≈ 99 µM) in the test with Streptococcus pneumoniae [3], above 26 µg/mL against Staphylococcus aureus [4] and 13 µg/mL (≈ 49.5 µM) against Enterococcus faecium [6]. In test [5], this compound yielded an IC50 of 53 µM.

Turning to `Nc1nc(Cl)cc(Nc2ccc3c(c2)CCC3)n1`, the MIC with Bacillus subtilis was 3 µg/mL (≈ 11.5 µM); in the test with Staphylococcus aureus [4] it was above 26 µg/mL; against Enterococcus faecium [7], above 26 µg/mL; against Streptococcus pneumoniae [8], above 26 µg/mL. This compound showed an IC50 in test [5] of 119 µM.

Consider `CC(C)(C)c1cccc(Nc2cc(Cl)nc(N)n2)c1`, for which the MIC was found to be 7 µg/mL (≈ 25.3 µM) in the test with Bacillus subtilis, 14 µg/mL (≈ 50.6 µM) in the test with Streptococcus pneumoniae [3], 7 µg/mL (≈ 25.3 µM) in the test with Staphylococcus aureus [4] and 14 µg/mL (≈ 50.6 µM) in the test on Enterococcus faecium [6]. Also, inhibition in test [5] was half-maximal at 89 µM (IC50).

Regarding `Cc1cc(Nc2ccc(C)c(I)c2)nc(N)n1`, in the test with Staphylococcus aureus [1], the inhibition was determined as 21%.

As for `CCc1cc(Nc2cc(Oc3ccc(F)cc3)nc(N)n2)ccc1C`, in the test with Staphylococcus aureus [1], the inhibition amounted to 33%.

Compound `CCc1cc(Nc2cc(Oc3ccc(Cl)cc3)nc(N)n2)ccc1C` came in with an inhibition in the test on Staphylococcus aureus [1] of 13%.

For the compound `Cc1ccc(Nc2cc(Sc3ccccc3)nc(N)n2)cc1I`, the inhibition in the test with Staphylococcus aureus [1] is 2%.

Turning to `Cc1ccc(Nc2cc(Cl)nc(N)n2)cc1I`, the MIC against Bacillus subtilis is 5 µg/mL (≈ 13.9 µM); in the test on Streptococcus pneumoniae [3] it was 18 µg/mL (≈ 49.9 µM); in the test on Staphylococcus aureus [4], above 36 µg/mL; against Enterococcus faecium [6] it was 36 µg/mL (≈ 99.8 µM). For the same compound, half-maximal inhibition in test [5] (IC50) was put at 51 µM.

Turning to `Cc1ccc(Nc2cc(Cl)nc(N)n2)cc1Br`, the MIC against Bacillus subtilis was determined as 8 µg/mL (≈ 25.5 µM); in the test with Streptococcus pneumoniae [3], 31 µg/mL (≈ 98.9 µM); in the test with Enterococcus faecium [6], 31 µg/mL (≈ 98.9 µM). Also, the IC50 in [5] turned out to be 94 µM.

`CCc1cc(Nc2cc(Oc3cccc(C)c3)nc(N)n2)ccc1C` returned an inhibition in the test on Staphylococcus aureus [1] of 88%. In test [2], this compound yielded an IC50 of 54 µM.

On to `Nc1nc(Cl)cc(Nc2ccc(Cl)c(Cl)c2)n1`, for which the MIC against Bacillus subtilis was 7 µg/mL (≈ 24.2 µM); against Staphylococcus aureus [4], 29 µg/mL (≈ 100 µM); against Enterococcus faecium [6], 29 µg/mL (≈ 100 µM); against Streptococcus pneumoniae [8] it was above 29 µg/mL. Also, the IC50 in [5] stood at 98 µM.

Take `CSc1cc(Nc2ccc(C)c(I)c2)nc(N)n1`: the inhibition in the test with Staphylococcus aureus [1] worked out at 20%.

On to `Cc1ccc(Nc2cc(Cl)nc(N)n2)cc1C`, for which the MIC was 6 µg/mL (≈ 24.1 µM) in the test with Bacillus subtilis, above 25 µg/mL against Staphylococcus aureus [4], above 25 µg/mL in the test with Enterococcus faecium [7] and above 25 µg/mL with Streptococcus pneumoniae [8]. The compound further registered an IC50 in test [5] of 115 µM.

The compound `Cc1ccc(Nc2cc(S)nc(N)n2)cc1I` registered an inhibition in the test with Staphylococcus aureus [1] of 54%.

Consider `Cc1ccc(Nc2cc(Cl)nc(N)n2)cc1Cl`, for which the MIC in the test with Bacillus subtilis was found to be 13 µg/mL (≈ 48.3 µM); against Streptococcus pneumoniae [3] it was 27 µg/mL (≈ 100 µM); in the test on Staphylococcus aureus [4], 27 µg/mL (≈ 100 µM); in the test on Enterococcus faecium [6] it was 27 µg/mL (≈ 100 µM). For the same compound, in test [5], the IC50 is 126 µM.

For `Cc1ccc(Nc2cc(N(C)C)nc(N)n2)cc1C`, the inhibition with Staphylococcus aureus [1] was 27%.
